Test results taken from US20220016277A1, “MACROCYCLIC COMPLEXES OF RADIONUCLIDES AND THEIR USE IN RADIOTHERAPY OF CANCER” (Cornell University, priority 2018, published 2022).

What was measured:
[1] = Kinetic inertness of La^3+ complex of macropa: transchelation challenge; type: physicochemical; details: La^3+ complex of macropa formed in situ; 1000 equiv of DTPA; whole 21-day observation
Description: (§1) Kinetic Inertness of La^3+ and Lu^3+ Complexes of Macropa: Transchelation Challenge. A stock solution of ethylenediaminetetraacetic acid (EDTA, 100 mM) was made in MOPS buffer (prepared as described above) by adjusting the pH of the initial suspension to 6.6 using aqueous NMe4OH. A stock solution of diethylenetriaminepentaacetic acid (DTPA, 125 mM) was prepared in H2O by adjusting the pH to 7.4 as described for EDTA. This solution was serially diluted with H2O to yield 12.5 mM and 1.25 mM solutions of DTPA.
(§2) The preformed La^3+ and Lu^3+ complexes of macropa were challenged with EDTA. […] […]. Solutions were repeatedly analyzed by UV spectroscopy over the course of 21 days for any spectral changes. The final pH of each solution was between 7.18 and 7.25.
The complex formed in situ between La^3+ and macropa was more rigorously challenged with excess DTPA. A solution containing 500 μM of complex, prepared using the LaCl3 and macropa stock solutions described above, was left to equilibrate for 5 min. Subsequently, it was portioned into cuvettes and diluted with either 125 mM DTPA, 12.5 mM DTPA, 1.25 mM DTPA, or MOPS to yield solutions containing 1000-, 100-, 10-, or 0-fold excess DTPA and 100 μM concentration of macropa. These solutions were repeatedly analyzed by UV spectroscopy over the course of 21 days for any spectral changes. The final pH of each solution was between 7.11 and 7.42.

[2] = Kinetic inertness of Lu^3+ complex of macropa: transchelation challenge; type: physicochemical; details: Lu^3+ complex of macropa formed in situ; addition of 10 equiv of EDTA; pH 7.4
Description: as §1, §2

O=C(O)c1cccc(CN2CCOCCOCCN(Cc3cccc(C(=O)O)n3)CCOCCOCC2)n1 [macropa, N,N′-bis[(6-carboxy-2-pyridil)methyl]-4,13-diaza-18-crown-6]
time La^3+ complex remained intact [1]: up to 21 days
time until Lu^3+ ion was transchelated [2]: ≤ 1 min
